What was measured:
[1] = system: P. falciparum Dd2 strain; experiment: Antiplasmodial 72 h growth assay; type: cell-based, Plasmodium falciparum; settings: relative to trichospirolide B (2)
[2] = Stability on storage; type: physicochemical; settings: storage at −23 °C

Structure (SMILES)	Fold higher antiplasmodial potency than trichospirolide B [1] [fold]	Stability on storage [2]
C=C(C)C(=O)O[C@H]1C/C(C)=C\C(=O)C[C@@]2(C)O[C@H]2[C@H]2OC(=O)C(COC(C)=O)=C12 [Compound 3, 1(10)Z,7(11)Z-(4R,5S,6S,8S)-13-acetoxy-4,5-epoxy-8-methacryloyloxy-2-oxogermacra-1,7-dien-6,12-olide]	3	–
C=C(C)C(=O)O[C@H]1C/C(C)=C\C(=O)/C=C(C)/C=C2/OC(=O)C(COC(C)=O)=C21 [Compound 1, 1(10)Z,3E,5E,7(12)Z-(8S)-13-acetoxy-8-methacryloyloxy-2-oxogermacra-1,3,5,7-tetraen-6,12-olide]	25	–
C=C(C)C(=O)O[C@@H]1C/C(C)=C\[C@@]2(O)C=C(C)[C@H](O2)[C@H]2OC(=O)C(COC(C)=O)=C12 [Compound 4, 1(10)Z,3Z,7(11)Z-(2S,5S,6S,8R)-13-acetoxy-2,5-epoxy-2-hydroxy-8-O-methacryloyloxygermacra-1(10),3,7(11)-trien-6,12-olide]	–	moderately unstable
